According to patent publication US11185812B2, “Regenerative recovery of sulfur dioxide from effluent gases” (MECS, INC., priority 2010, dated 2021):
Like-named read-outs stand apart in the source and are kept apart here.

Columns and labels:
[1] = Equilibrium loading data for metal salts, batch absorber experiments; format: physicochemical; settings: atmospheric pressure; for SO2, ppm: equilibrium SO2 concentration; for Loading Capacity (fraction): equilibrium, aqueous absorption solution
Experimental: The following experiments were conducted in a batch absorber wherein a sulfur dioxide-containing gas was fed via a sparger below the liquid level in a vessel containing an aqueous absorption solution comprising various polyprotic carboxylic acid salts and the composition of the exhaust gas was monitored.
The sulfur dioxide-containing inlet gas 101 to be treated comprised nitrogen saturated with water vapor and a controlled concentration of sulfur dioxide. Temperatures (T) and pressure (P) were monitored during the experiment and gas samples (S) were taken at different times during the experiment. T1 and P1 are temperature and pressure sensors of inlet gas 101. S1 is a sampling point for inlet gas 101. T2 is a temperature sensor of the liquid in the vessel. T3 is a temperature sensor of exhaust gas 102.
In these experiments and other experiments reported in the Examples below, the gas concentrations were measured by gas chromatography and liquid concentrations were calculated by material balance.
All experiments were performed at atmospheric pressure. These experiments approach equilibrium concentrations and, in some cases, equilibrium data (denoted Eq. in the legend) are also included in the graphed results. For the equilibrium data, the compositions of the gas and liquid were diluted with excess caustic to maintain the sulfur dioxide in solution.
Total sulfur content was determined using ASTM Standard D1552, “Standard Test Method for Sulfur in Petroleum Products (High-Temperature Method”, DOI: 10.1520/D1552-08, available from ASTM International, West Conshohocken, Pa., www.astm.org.

[2] = cited from earlier work

Row | Compound | SO2, ppm ([1]; 50 °C) [ppm] | SO2, ppm ([1]; 100 °C) [ppm] | Loading Capacity (fraction) ([1]; 50 °C) | Loading Capacity (fraction) ([1]; 100 °C) | pKa1 ([2]; 25° C.) | pKa2 ([2]; 25° C.) | pKa1 ([2]; temperature not given)
1 | O=C([O-])CC(O)(CC(=O)[O-])C(=O)[O-].[K+].[K+].[K+] [K Cit, potassium citrate] | 105.94 | 1162.54 | 0.2754 | 0.2668 |  |  | 
2 | O=C(O)CCCC(=O)O [L-Glutaric Acid] |  |  |  |  | 4.31 | 5.41 | 
3 | CC(=O)CCC(=O)O [Levulinic Acid] |  |  |  |  | 4.59 |  | 
4 | O=C([O-])CC(O)C(=O)[O-].[Na+].[Na+] (stereo not shown) [Na Mal, sodium malate] | 406.6 | 2169.06 | 0.1694 | 0.1416 |  |  | 
5 | O=C([O-])c1ccccc1C(=O)[O-].[Na+].[Na+] [Na Pha, sodium phthalate] | 1115.92 | 11303.83 | 0.6530 | 0.7250 |  |  | 
6 | O=C([O-])CCC(=O)[O-].[Na+].[Na+] [Na Suc, sodium succinate] | 137.54 | 1387.3 | 0.1045 | 0.2053 |  |  | 
7 | O=C(O)c1cccnc1 [Nicotinic acid] |  |  |  |  |  |  | 4.75
8 | O=C(O)c1ccccc1C(=O)O [o-Phthalic Acid] |  |  |  |  | 2.89 | 5.51 | 
